Source: patent publication US20210403567A1, “METHODS OF TREATING CERVICAL CANCER BY ADMINISTERING A PD-1 INHIBITOR” (priority 2020, published 2021)
Where “and” joins values, the source holds several entries; their conditions need not be identical. Equal values may be shown once. Entries after “also recorded” stand apart in the source; their conditions may differ. Read-outs that look alike come from different tables or passages of the source.

Legend:
[1] = tested on: recurrent or metastatic cervical cancer; test: Phase 3 trial, cemiplimab versus IC chemotherapy: quality of life, EORTC QLQ-C30 (GHS/QoL, functioning and symptom scales), MMRM LS mean change from baseline; format: in vivo, human; details: overall population
Description: QOL is measured by the EORTC QLQ-C30.
Quality of Life Questionnaires: Patient-reported outcomes are measured using the validated patient self-administered EORTC QLQ-C30 questionnaire. Patients are asked to complete these questionnaires prior to any study procedures being performed at a given study visit (during the on-study/treatment and follow-up periods).
QoL: Longitudinal change from baseline at each PRO assessment in the GHS/QoL and PF scales was analyzed using a mixed model with repeated measures (MMRM). Higher scores on these scales indicate better health status/function. […] The model generated least squares (LS) mean estimates, standard errors, 95% CIs and p-values (where applicable) for mean changes from baseline on each PRO assessment.
At baseline and Day 1 of each treatment cycle (up to 16), patients were administered the EORTC QLQ-030. Mixed-effects repeated measures models estimated least squares (LS) mean change from baseline across all scales. Responder analyses determined the proportions with clinically meaningful (using 10-point threshold) improvement or deterioration, or stability on QLQ-030.

[2] = tested on: cervical cancer; details: durable responses; cited from earlier work
[3] = tested on: recurrent or metastatic cervical cancer that has progressed after first-line platinum-based treatment
[4] = Grade 3-5, cemiplimab N=300, chemotherapy N=290
[5] = any grade, cemiplimab N=300, chemotherapy N=290
[6] = cemiplimab vs Gemcitabine (n = 108 vs 121)
[7] = cemiplimab vs Irinotecan (n = 26 vs 19)
[8] = cemiplimab vs Pemetrexed (n = 119 vs […])
[9] = cemiplimab vs Topotecan (n = 20 vs 21)
[10] = cemiplimab vs Vinorelbine (n = 31 vs 32)
[11] = subgroup with IC chemotherapy selected prior to randomisation: Gemcitabine (n = 108 vs 121)
[12] = subgroup with IC chemotherapy selected prior to randomisation: Irinotecan (n = 26 vs 19)

For cemiplimab, the “LS mean change from baseline, EORTC QLQ-C30 GHS/QoL” value ([1]; C5D1) was 0.48, the “LS mean change from baseline, EORTC QLQ-C30 Physical Functioning” value ([1]; C5D1) was −1.27 and the “Difference in LS mean change, Cemiplimab versus Chemotherapy, GHS/QoL” value (shortened to “Difference in LS mean change … GHS/QoL”) ([1]; C6D1) was 5.44. The “Difference in LS mean change, Cemiplimab versus Chemotherapy, Physical Functioning” value ([1]; C6D1) was 6.93, the “LS mean change from baseline, EORTC QLQ-C30 GHS/QoL” value ([1]; C6D1) was −0.29 and the “LS mean change from baseline, EORTC QLQ-C30 Physical Functioning” value ([1]; C6D1) was −1.34. For the same substance, the “Difference in LS mean change … GHS/QoL” value ([1]; C7D1) was 8.30, the “Difference in LS mean change, Cemiplimab versus Chemotherapy, Physical Functioning” value ([1]; C7D1) was 11.66 and the “LS mean change from baseline, EORTC QLQ-C30 GHS/QoL” value ([1]; C7D1) was 3.32. The “LS mean change from baseline, EORTC QLQ-C30 Physical Functioning” value ([1]; C7D1) was −0.10, the “Difference in LS mean change … GHS/QoL” value ([1]; C8D1) was 14.08 and the “Difference in LS mean change, Cemiplimab versus Chemotherapy, Physical Functioning” value ([1]; C8D1) was 12.96. The “LS mean change from baseline, EORTC QLQ-C30 GHS/QoL” value ([1]; C8D1) was −1.09, the “LS mean change from baseline, EORTC QLQ-C30 Physical Functioning” value ([1]; C8D1) was −0.89 and the “course of GHS/QoL from baseline” value ([1]; EORTC QLQ-C30) was “improved or maintained GHS/QoL from baseline; also recorded: generally improve or maintain their baseline GHS/QOL”. The “Difference in LS mean change … GHS/QoL” value ([1]; Overall Across Cycles) was 7.81, the “Difference in LS mean change, Cemiplimab versus Chemotherapy, Physical Functioning” value ([1]; Overall Across Cycles) was 8.26 and the “LS mean change from baseline, EORTC QLQ-C30 GHS/QoL” value ([1]; Overall Across Cycles) was 1.01. For the same substance, the “LS mean change from baseline, EORTC QLQ-C30 Physical Functioning” value ([1]; Overall Across Cycles) was −0.45, the “responding patients in dose escalation” value [2] was 2/3 and the “Sponsor-identified immune-related AEs: Led to death” value [4] was 0 n (%). The “Treatment-emergent AEs that led to death” value [4] was 5 (1.7) n (%), the “Treatment-related AEs: Led to death” value [4] was 0 n (%) and the “Number of patients with any TEAE resulting in death” value [5] was 5 n (%) and 5 (1.7) n (%). For the same substance, the “Sponsor-identified immune-related AEs: Led to death” value [5] was 0 n (%), the “Treatment-related AEs: Led to death” value [5] was 0 n (%) and the “AEs observed, patients” value (in vivo) was 88%. For the same substance, the “Grade 3 or higher AEs, patients” value (in vivo) was 45%, the “Number of NCI grade 3/4/5 TEAEs” value (in vivo) was 299 and the “Number of TEAEs” value (in vivo) was 1969. For the same substance, the “Number of patients with any TEAE leading to a dose interruption/delay” value (in vivo) was 75 n (%), the “Number of patients with any TEAE leading to a dose reduction” value (in vivo) was 0 n (%) and the “Number of patients with any serious TEAE” value (in vivo) was 89 n (%). For the same substance, the “Number of serious TEAEs” value (in vivo) was 147, the “Treatment-emergent AEs that led to discontinuation” value (in vivo) was 20 (6.7) n (%) and the “anemia, patients” value (in vivo) was 25%. For the same substance, the “asthenia, patients” value (in vivo) was 2%, the “constipation, patients” value (in vivo) was 15% and the “decreased appetite, patients” value (in vivo) was 15%. For the same substance, the “fatigue, patients” value (in vivo) was 17%, the “nausea, patients” value (in vivo) was 18% and the “pyrexia, patients” value (in vivo) was “less than 1%”. For the same substance, the “vomiting, patients” value (in vivo) was 16%, the “OS HR, cemiplimab vs individual IC chemotherapy” value [3, 6] was “HR; 0.76” and the “PFS HR, cemiplimab vs individual IC chemotherapy” value [3, 6] was “HR; 0.73”. The “OS HR, cemiplimab vs individual IC chemotherapy” value [3, 7] was “HR; 0.69”, the “PFS HR, cemiplimab vs individual IC chemotherapy” value [3, 7] was “HR; 0.77” and the “OS HR, cemiplimab vs individual IC chemotherapy” value [3, 8] was “HR; 0.71”. For the same substance, the “PFS HR, cemiplimab vs individual IC chemotherapy” value [3, 8] was “HR; 0.70”, the “OS HR, cemiplimab vs individual IC chemotherapy” value [3, 9] was “HR; 0.78” and the “PFS HR, cemiplimab vs individual IC chemotherapy” value [3, 9] was “HR; 0.90”. The “OS HR, cemiplimab vs individual IC chemotherapy” value [3, 10] was “HR; 0.77”, the “PFS HR, cemiplimab vs individual IC chemotherapy” value [3, 10] was “HR; 1.21” and the “OS, PFS and ORR versus each IC chemotherapy treatment” value ([3]; gemcitabine, pemetrexed, vinorelbine, topotecan, irinotecan subgroups) was “improvements with cemiplimab versus each IC chemotherapy treatment”. For the same substance, the “Median OS (95% CI)” value [3, 11] was 10.7 (9.2-13.3) months, the “Median PFS (95% CI)” value [3, 11] was 2.8 (2.6-4.3) months and the ORR [3, 11] was 17.6%. For the same substance, the “Median OS (95% CI)” value [3, 12] was 15.8 (11.2-NE) months, the “Median PFS (95% CI)” value [3, 12] was 6.9 (1.9-13.8) months and the ORR [3, 12] was 23.1%.
